Laboratory results from ChEMBL document CHEMBL3352551, “Synthesis and biological evaluation of novel allosteric enhancers of the A1 adenosine receptor based on 2-amino-3-(4'-chlorobenzoyl)-4-substituted-5-arylethynyl thiophene” (J Med Chem, 2014).
Active and inactive are the calls of the source. The calls are words filed in the database; no cut-off is given here.

How the values were obtained:
[1] = biological target: T1, Adenosine receptor A1 (Homo sapiens) (UniProt P30542); experiment: Displacement of [3H]DPCPX from human adenosine A1 receptor expressed in CHO cell membranes at 10 uM
T1 sequence (whole entry): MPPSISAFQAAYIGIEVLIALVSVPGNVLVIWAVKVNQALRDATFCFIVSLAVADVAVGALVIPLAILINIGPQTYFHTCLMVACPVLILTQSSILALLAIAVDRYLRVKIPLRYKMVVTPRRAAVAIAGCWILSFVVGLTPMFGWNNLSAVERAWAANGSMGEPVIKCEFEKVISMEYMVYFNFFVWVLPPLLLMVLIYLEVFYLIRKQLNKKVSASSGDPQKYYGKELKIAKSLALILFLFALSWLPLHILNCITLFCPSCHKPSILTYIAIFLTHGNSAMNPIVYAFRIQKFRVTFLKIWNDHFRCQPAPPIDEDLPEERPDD

[2] = biological target: T1, Adenosine receptor A1 (Homo sapiens); experiment: Allosteric enhancer activity at human adenosine A1 receptor expressed in CHO cells assessed as inhibition of forskolin-induced cAMP production at 10 uM; type: functional, cell-based
[3] = biological target: T1, Adenosine receptor A1 (Homo sapiens); experiment: Allosteric enhancer activity at human adenosine A1 receptor expressed in CHO cell membranes assessed as shift in [3H]CCPA Bmax level at 10 uM by saturation binding assay
[4] = biological target: T1, Adenosine receptor A1 (Homo sapiens); experiment: Allosteric enhancer activity at human adenosine A1 receptor expressed in CHO cell membranes assessed as shift in CCPA binding Ki level at 10 uM by [3H]DPCPX competition binding assay
[5] = biological target: Adenosine receptor A2a (Homo sapiens) (UniProt P29274); experiment: Displacement of [3H]ZM241385 from human adenosine A2A receptor expressed in CHO cell membranes at 10 uM
[6] = biological target: T1, Adenosine receptor A1 (Homo sapiens); experiment: Allosteric enhancer activity at human adenosine A1 receptor expressed in CHO cells assessed as inhibition of forskolin-induced cAMP production at 100 nM in presence of 1 pM CCPA; type: functional, cell-based
[7] = biological target: T2, Adenosine receptor A3 (Homo sapiens) (UniProt P0DMS8); experiment: Displacement of [3H]MRE-3008-F20 from human adenosine 3 receptor expressed in CHO cell membranes at 10 uM
T2 sequence (whole entry): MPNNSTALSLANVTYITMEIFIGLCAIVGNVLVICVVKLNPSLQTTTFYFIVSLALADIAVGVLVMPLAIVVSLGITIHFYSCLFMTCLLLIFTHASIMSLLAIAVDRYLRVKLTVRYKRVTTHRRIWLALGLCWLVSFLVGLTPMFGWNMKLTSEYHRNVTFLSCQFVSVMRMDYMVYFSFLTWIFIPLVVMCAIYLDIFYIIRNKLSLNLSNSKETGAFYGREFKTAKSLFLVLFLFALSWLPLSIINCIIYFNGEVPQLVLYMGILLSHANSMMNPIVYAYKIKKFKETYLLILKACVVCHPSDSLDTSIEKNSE

[8] = biological target: T1, Adenosine receptor A1 (Homo sapiens); experiment: Allosteric enhancer activity at human adenosine A1 receptor expressed in CHO cell membranes assessed as shift in [3H]CCPA Kd level at 10 uM by saturation binding assay

Adenosine receptor A2a (Homo sapiens), sequence (P29274 whole entry): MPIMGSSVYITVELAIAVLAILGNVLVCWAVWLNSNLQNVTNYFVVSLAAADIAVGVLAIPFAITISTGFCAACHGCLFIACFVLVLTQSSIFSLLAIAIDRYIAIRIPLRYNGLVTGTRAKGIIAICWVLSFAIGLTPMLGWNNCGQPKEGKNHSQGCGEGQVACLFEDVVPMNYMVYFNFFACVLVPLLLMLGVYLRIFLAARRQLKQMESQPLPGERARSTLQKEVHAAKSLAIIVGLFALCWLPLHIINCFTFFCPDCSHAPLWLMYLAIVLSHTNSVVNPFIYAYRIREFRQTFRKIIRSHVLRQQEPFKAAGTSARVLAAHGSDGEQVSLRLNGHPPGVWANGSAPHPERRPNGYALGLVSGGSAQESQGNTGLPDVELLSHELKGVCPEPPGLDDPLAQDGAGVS

Row | SMILES | inhibition [1] | inhibition [2] | fold change (FC) [3] | fold change (FC) [4] | inhibition [5] | inhibition [6] | inhibition [7] | Activity [8]
1 | Nc1sc(C#Cc2ccccc2)c(CN2CCN(c3ccc(Cl)c(C(F)(F)F)c3)CC2)c1C(=O)c1ccc(Cl)cc1 | < 15% | 30% | 2.7 | 2.4 | < 15% | 36% | < 15% | 
2 | Nc1sc(C#Cc2ccccc2)c(CN2CCN(c3ccc(F)cc3)CC2)c1C(=O)c1ccc(Cl)cc1 | < 15% | 37% | 3.9 | 3.9 | < 15% | 38% | < 15% | 
3 | COc1ccc(C#Cc2sc(N)c(C(=O)c3ccc(Cl)cc3)c2CC(C)(C)C)cc1OC | < 15% | 72% | 7.1 | 6.8 | < 15% | 74% | < 15% | 
4 | Nc1sc(C#Cc2ccccc2)cc1C(=O)c1ccc(Cl)cc1 | < 15% | 20% | 2 | 1.5 | < 15% | 25% | < 15% | 
5 | Cc1cccc(C#Cc2sc(N)c(C(=O)c3ccc(Cl)cc3)c2CC(C)(C)C)c1 | < 15% | 68% | 7.5 | 7.1 | < 15% | 71% | < 15% | 
6 | Nc1sc(CCc2ccccc2)cc1C(=O)c1ccc(Cl)cc1 | < 15% | 22% | 1.7 | 1.3 | < 15% | 20% | < 15% | 
7 | Nc1sc(C#Cc2ccccc2)c(CN2CCN(c3ccc(Cl)cc3)CC2)c1C(=O)c1ccc(Cl)cc1 | < 15% | 35% | 3.4 | 3.6 | < 15% | 35% | < 15% | 
8 | Cc1ccc(C#Cc2sc(N)c(C(=O)c3ccc(Cl)cc3)c2C)cc1 | < 15% | 31% | 2.3 | 1.7 | < 15% | 36% | < 15% | 
9 | Nc1sc(C#Cc2ccccc2)c(CN2CCN(c3ccc(Cl)c(Cl)c3)CC2)c1C(=O)c1ccc(Cl)cc1 | < 15% | 22% | 2.1 | 1.7 | < 15% | 24% | < 15% | 
10 | CCCCCC#Cc1sc(N)c(C(=O)c2ccc(Cl)cc2)c1CC(C)(C)C | < 15% | 66% | 6.3 | 4.1 | < 15% | 69% | < 15% | inactive
11 | Nc1sc(C#Cc2ccccc2)c(CN(C2CCCCC2)C2CCCCC2)c1C(=O)c1ccc(Cl)cc1 | < 15% | 10% | 1.2 | 3.7 | < 15% | 19% | < 15% | 
12 | CC(C)(C)Cc1c(C#CC2CCCCC2)sc(N)c1C(=O)c1ccc(Cl)cc1 | < 15% | 67% | 8 | 4.8 | < 15% | 71% | < 15% | 
13 | CC(C)(C)Cc1c(C#Cc2ccsc2)sc(N)c1C(=O)c1ccc(Cl)cc1 | < 15% | 60% | 5.7 | 3.9 | < 15% | 63% | < 15% | 
14 | Cc1ccc(CCc2sc(N)c(C(=O)c3ccc(Cl)cc3)c2CC(C)(C)C)cc1 | < 15% | 43% | 5 | 3.8 | < 15% | 45% | < 15% | 
15 | Cc1cc(C)c(C#Cc2sc(N)c(C(=O)c3ccc(Cl)cc3)c2CC(C)(C)C)cc1C | < 15% | 68% | 7 | 7.5 | < 15% | 67% | < 15% | 
16 | Nc1sc(CCc2ccccc2)c(-c2ccccc2)c1C(=O)c1ccc(Cl)cc1 | < 15% | 25% | 2.2 | 1.6 | < 15% | 24% | < 15% | 

Row | SMILES | inhibition [1] | inhibition [2] | fold change (FC) [3] | fold change (FC) [4] | inhibition [5] | inhibition [6] | inhibition [7] | Activity [8]
17 | Cc1c(C#Cc2ccccc2)sc(N)c1C(=O)c1ccc(Cl)cc1 | < 15% | 27% | 2.5 | 1.5 | < 15% | 34% | < 15% | 
18 | Cc1ccc(C)c(C#Cc2sc(N)c(C(=O)c3ccc(Cl)cc3)c2CC(C)(C)C)c1 | < 15% | 62% | 6.2 | 4 | < 15% | 66% | < 15% | 
19 | Cc1c(CCc2ccccc2)sc(N)c1C(=O)c1ccc(Cl)cc1 | < 15% | 28% | 2.2 | 1.6 | < 15% | 27% | < 15% | 
20 | CC(C)(C)Cc1c(-c2ccccc2)sc(N)c1C(=O)c1ccc(Cl)cc1 |  |  | 6.9 | 4.8 |  |  |  | 
21 | COc1ccc(C#Cc2sc(N)c(C(=O)c3ccc(Cl)cc3)c2CC(C)(C)C)cc1 | < 15% | 71% | 7.4 | 8.2 | < 15% | 79% | < 15% | inactive
22 | Cc1ccc(C#Cc2sc(N)c(C(=O)c3ccc(Cl)cc3)c2CC(C)(C)C)cc1 | < 15% | 70% | 7.2 | 7.5 | < 15% | 73% | < 15% | 
23 | Nc1sc(C#Cc2ccccc2)c(-c2ccccc2)c1C(=O)c1ccc(Cl)cc1 | < 15% | 24% | 1.9 | 1.5 | < 15% | 25% | < 15% | 
24 | Nc1sc(C#Cc2ccccc2)c(CN2CCN(c3ccc(C(F)(F)F)cc3)CC2)c1C(=O)c1ccc(Cl)cc1 | < 15% | 31% | 2.9 | 3 | < 15% | 33% | < 15% | 
25 | Nc1sc(C#Cc2ccccc2)c(CN2CCN(c3ccccc3)CC2)c1C(=O)c1ccc(Cl)cc1 | < 15% | 29% | 2.8 | 2.8 | < 15% | 31% | < 15% | 
26 | Nc1sc(-c2ccccc2)c(CN2CCN(c3ccccc3)CC2)c1C(=O)c1ccc(Cl)cc1 |  |  | 11.5 | 8.3 |  |  |  | 
27 | CCCCCc1ccc(C#Cc2sc(N)c(C(=O)c3ccc(Cl)cc3)c2CC(C)(C)C)cc1 | < 15% | 60% | 5.5 | 3.7 | < 15% | 62% | < 15% | 
28 | Cc1ccc(-c2sc(N)c(C(=O)c3ccc(Cl)cc3)c2CC(C)(C)C)cc1 |  |  | 6.4 | 6 |  |  |  | 
29 | CC(C)(C)Cc1c(CCc2ccccc2)sc(N)c1C(=O)c1ccc(Cl)cc1 | < 15% | 40% | 3.3 | 3.5 | < 15% | 41% | < 15% | 
30 | COc1ccc(-c2sc(N)c(C(=O)c3ccc(Cl)cc3)c2CC(C)(C)C)cc1 |  |  | 6.1 | 4.3 |  |  |  | 
31 | Nc1sc(-c2ccccc2)c(CN(C2CCCCC2)C2CCCCC2)c1C(=O)c1ccc(Cl)cc1 |  |  | 3.5 | 3.2 |  |  |  | 
